Columns and labels:
cyclooxygenase (COX) = test: Serum prostaglandin E2 and thromboxane B2 by LC-MS/MS in trial subjects; assay type: in vivo, human; conditions: fasting serum, visit 2 to 7, 300 mg aspirin daily
Experimental: As exploratory endpoints, post-hoc intervention effects on prostaglandin E2 (PGE2) and thromboxane B2 (TBX2) in serum samples downstream of cyclooxygenase (COX) were studied.
After unblinding, a post-hoc lab analysis was performed on 2 biolipids PGE2 and TXB2 downstream from the COX enzyme in fasting serum samples obtained during visit 2 to visit 7. […] J. Chromatogr. […] Ambiotis were kept blinded for intervention during analyses and analyses were performed in single measurements.

[1] = Co-incubation of DSM 32356 with acetylsalicylic acid, metabolite analysis
Experimental: The overall aim with this experiment was to explore if Bifidobacterium breve DSM 32356 influenced the degradation of aspirin in vitro.
To cover a wide concentration range of acetylsalicylic acid the following concentrations were used: 20, 10, 5, 2.5, 1.25, 0.625, 0.3125 and 0 mM of acetylsalicylic acid.
The next day the grown culture was reinoculated in fresh MRS with 0.05% CyHCl (100 μL bacteria suspension in 10 mL MRS with 0.05% CyHCl). Six dilution rows were generated by transferring 1 mL of mixed inoculated culture to 10 mL MRS with 0.05% CyHCl. This was repeated 5 times. The bifidobacteria were cultured anaerobically overnight at 37° C. On the day of incubation with acetylsalicyl acid bacterial growth was evaluated by measuring optical density at 600 nm (OD600 nm) and cultures representing late exponential/early stationary phase were selected. […]
Nine mL of each acetylsalicylic acid solution (22.2, 11.1, 5.6, 2.8, 1.39, 0.69 and 0.35 mM) and the control condition (0 mM) were added to different sterile tubes in duplicate. […] After incubation, pH was measured in each vial and the solutions were sterile filtered and frozen at −80° C. until metabolite analysis. […]

upper GI bleeding = conditions: in vivo; cited from earlier work
Caco-2 cell layer = conditions: cited from earlier work

In the case of CC(=O)Oc1ccccc1C(=O)O [acetylsalicylic acid (aspirin), acetylsalicylic acid], the “serum PGE2 concentrations” value (cyclooxygenase (COX)) is reported as “robust inhibition”, the “serum TXB2 concentrations” value (cyclooxygenase (COX)) is reported as “robust inhibition” and the “conversion of acetylsalicylic acid to salicylic acid” value ([1]; 24 hours, 37° C., with DSM 32356 or acid-adjusted to pH 4.5, MRS) is reported as “most of the acetylsalicylic acid was converted to salicylic acid”. For the same molecule, the “growth of DSM 32356” value ([1]; increasing concentrations of aspirin) was “inhibited bacterial growth”, the “increased risk of upper GI bleeding” value (upper GI bleeding) was 2- to 4 fold and the ZO-1 expression (Caco-2 cell layer) was “decreased”. The “flux of fluorescein isothiocyanate-conjugated dextran” value (Caco-2 cell layer) was “increases flux” and the “transepithelial electrical resistance (TEER)” value (Caco-2 cell layer) was “decreased”.
